“And” between values parts separate entries of the source, which are not always exact repeats. Equal values may be shown once. “Also recorded” adds a separate entry of the source. Read-outs that look alike come from different tables or passages of the source.
Tests used:
[1] = tested on: PD-L1 (CD274) surface expression in EBC-1 cells; assay: Flow cytometry of PD-L1 surface expression in EBC-1 cells in vitro; assay type: cell-based, human; details: EBC-1 cells (NSCLC with cMET amplification); 10, 100, 1000 nM; 24, 48, 72 hours; vs DMSO; FIG. 15
Description: PD-L1 (CD274) expression was analyzed in cancer cell lines treated with Compound A17. Cells were obtained from ATCC and cultured in vitro following ATCC directions. The cell lines used were previously characterized by the Cancer Cell Line Encyclopedia Project (http://www.broadinstitute.org/ccle/home).
Cells plated in six-well culture plates were treated with the Compound A17 at different concentrations (10 nM, 100 nM, and 1000 nM) for 24, 48 and 72 hours. Equal amount of vehicle (DMSO) was used as a control. Cells were washed with PBS and then harvested using a cell scraper.
For each reaction, 0.5-1×10^6 cells were stained with 20 μL of anti-human monoclonal PD-L1— PE antibody, clone M1H1 (BD) for 30-60 minutes at 4° C. Cells were washed twice and data was acquired using a Canto II with FACSDiva software (BD Bioscience). Data analysis was performed using FlowJo software (Tree Star). Mean fluorescence intensity (MFI) was determined by gating on single cells. Unstained cells were used as a gating control.

[2] = tested on: PD-L1 (CD274) mRNA in Hs.746.T tumor; assay: PD-L1 mRNA in Hs.746.T tumor xenograft; assay type: in vivo, human; details: Hs.746.T tumor (gastric cancer, cMET amplification & mutation) xenograft; FIG. 16
Description: (§1) TaqMan RT PCR assays were developed to detect changes of expression levels of PD-L1 (CD274) in cell lines and xenograft tumors. mRNA was isolated from frozen cell pellets or tumor fragments using the Qiagen RNeasy Mini kit. Isolated RNA was frozen at −80° C. RNA quality was checked and RNA was quantified using a 2100 Agilent Bioanalyzer following the protocol for the Agilent RNA 6000 Nano Kit. cDNA was prepared using a High Capacity RNA—to cDNA Kit (Applied Biosystems).
(§2) Real-time PCR reactions were carried out in 20 μl total volume, including 10 μl of Universal PCR master mix (Applied Biosystems), 1 μl of human PD-L1 (CD274) probe/primer set (Applied Biosystems), and 8 μl of cDNA. Each sample was run in triplicate. The amount of cDNA produced from 25-50 ng of RNA in the reverse transcription reaction was used in each PCR reaction. Due to difference in mRNA levels between PD-L1 and GAPDH, the two real-time PCR reactions were done in separate tubes using same amount of cDNA. The real-time PCR reaction was run on the C1000 Thermal Cycle (BioRad) with the cycle program as follows: a 10 minute incubation at 95° C. followed by 40 cycles of 95° C. for 15 seconds and 60° C. for 1 minute. After the reaction was complete, the PD-L1 average Ct was normalized relative to each Ct value from the GAPDH reference reaction. Each normalized logarithmic value was then converted into a linear value.

[3] = tested on: PD-L1 (CD274) mRNA in UKE-1 tumors; assay: PD-L1 mRNA in UKE-1 tumor xenograft model; assay type: in vivo, human; details: tumor xenograft model bearing UKE-1 (MPN line with JAK2V617F mutation); FIG. 20
Description: as §1, §2

[4] = tested on: PD-L1 (CD274) mRNA in H3122 cells; assay: TaqMan RT PCR of PD-L1 mRNA in H3122 cells in vitro; assay type: cell-based, human; details: H3122 (NSCLC with ALK translocation) in vitro; FIG. 17
Description: as §1, §2

[5] = tested on: PD-L1 (CD274) mRNA in LOXIMV1 tumors; assay: PD-L1 mRNA in LOXIMV1 tumor xenograft model; assay type: in vivo, human; details: tumor xenograft model bearing LOXIMV1 (BRAF mutant melanoma); FIG. 18
Description: as §1, §2

[6] = tested on: PD-L1 (CD274) mRNA in HEYA8 tumors; assay: PD-L1 mRNA in HEYA8 tumor xenograft model; assay type: in vivo, human; details: tumor xenograft model bearing HEYA8 (KRAF mutant ovarian cancer); FIG. 19
Description: as §1, §2

[7] = tested on: interferon gamma (IFN-γ) expression; assay type: cell-based
[8] = tested on: CD8+ T cells; assay: Proliferation of CD8+ T cells activated with CMV peptides; assay type: cell-based; details: percentages of CD8+ cells that passed through at least n cell divisions (n=2, 4, 6)

`CNC(=O)c1ccc(-c2cnc3ncc(Cc4ccc5ncccc5c4)n3n2)cc1F` [Compound A17, 2-fluoro-N-methyl-4-(7-(quinolin-6-ylmethyl)imidazo[1,2-b][1,2,4]triazin-2-yl)benzamide] was tested, and the “surface expression of PD-L1 (flow cytometry)” value [1] was “Significant inhibition; also recorded: significant downregulation” and the “PD-L1 expression (mRNA)” value [2] was “Inhibition”.

For `N#CC[C@H](C1CCCC1)n1cc(-c2ncnc3[nH]ccc23)cn1` [Compound A18, Ruxolitinib Phosphate], the “PD-L1 mRNA” value [3] was “Significant inhibition; also recorded: Downregulation”.

With `Cc1cc(Nc2ncc(Cl)c(Nc3ccccc3S(=O)(=O)C(C)C)n2)c(OC(C)C)cc1C1CCNCC1` [Compound A23, ceritinib] the “PD-L1 mRNA” value [4] was “Significant inhibition”.

With `COC(=O)N[C@@H](C)CNc1nccc(-c2cn(C(C)C)nc2-c2cc(Cl)cc(NS(C)(=O)=O)c2F)n1` [Compound A29, Encorafenib] the “PD-L1 mRNA” value [5] was “Significant inhibition; also recorded: Downregulation”.

In the case of `Cn1cnc2c(F)c(Nc3ccc(Br)cc3F)c(C(=O)NOCCO)cc21` [Compound A34, Binimetinib], the “PD-L1 mRNA” value [6] is reported as “Significant inhibition; also recorded: Downregulation”.

B1: BAP049: murine anti-PD-1 monoclonal antibody (antibody, V domains shown)
VH: QVQLQQSGSELVRPGASVKLSCKASGYTFTTYWMHWVRQRPGQGLEWIGNIYPGTGGSNFDEKFKNRTSLTVDTSSTTAYMHLASLTSEDSAVYYCTRWTTGTGAYWGQGTLVTVSA
VL: DIVMTQSPSSLTVTAGEKVTMSCKSSQSLLDSGNQKNFLTWYQQKPGQPPKLLIFWASTRESGVPDRFTGSGSVTDFTLTISSVQAEDLAVYYCQNDYSYPCTFGGGTKLEIK
For B1, the “fold increase in IFN-γ expression” value [7] was 2.3±1.1 fold and 2.8±0.8 fold, the “fold increase in IFN-γ expression” value ([7]; cells stimulated with Staphylococcal enterotoxin B (SEB) (3 pg/mL)) was 2.5±2.0 fold and the “proliferation of CD8+ T cells activated with CMV peptides” value [8] was “increase proliferation”.
